Experimental data: PubChem BioAssay (NCI)
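1) Cells in 96-well plates. 2) Compound, 48 h, 5 concentrations. 3) Linear interpolation between surrounding doses. 4) Unreached endpoint = highest concentration. TGI: concentration producing complete growth inhibition.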

What was measured:
Experiment in all cases: growth of human tumour cells (NCI), 48 h
COLO 205 colon = test system: COLO 205 colon
HS 578T breast = test system: HS 578T breast
MALME-3M melanoma = test system: MALME-3M melanoma
OVCAR-3 ovarian = test system: OVCAR-3 ovarian
UACC-257 melanoma = test system: UACC-257 melanoma
A498 renal = test system: A498 renal
CCRF-CEM leukemia = test system: CCRF-CEM leukemia
OVCAR-4 ovarian = test system: OVCAR-4 ovarian
SK-MEL-2 melanoma = test system: SK-MEL-2 melanoma
UACC-62 melanoma = test system: UACC-62 melanoma
NCI-H460 lung = test system: NCI-H460 lung
SF-295 CNS = test system: SF-295 CNS
HCC-2998 colon = test system: HCC-2998 colon
MOLT-4 leukemia = test system: MOLT-4 leukemia
MDA-MB-231 breast = test system: MDA-MB-231 breast
SF-539 CNS = test system: SF-539 CNS
SN12C renal = test system: SN12C renal
IGROV1 ovarian = test system: IGROV1 ovarian
UO-31 renal = test system: UO-31 renal
K-562 leukemia = test system: K-562 leukemia
786-0 renal = test system: 786-0 renal
OVCAR-5 ovarian = test system: OVCAR-5 ovarian
MDA-N = test system: MDA-N
TK-10 renal = test system: TK-10 renal
SK-MEL-28 melanoma = test system: SK-MEL-28 melanoma
NCI/ADR-RES ovarian = test system: NCI/ADR-RES ovarian
NCI-H522 lung = test system: NCI-H522 lung
A549 NSCLC = test system: A549 NSCLC
HOP-92 NSCLC = test system: HOP-92 NSCLC
SW-620 colon = test system: SW-620 colon
RXF 393 renal = test system: RXF 393 renal
BT-549 breast = test system: BT-549 breast
U251 CNS = test system: U251 CNS
T-47D breast = test system: T-47D breast
HCT-15 colon = test system: HCT-15 colon
DU-145 prostate = test system: DU-145 prostate
CAKI-1 renal = test system: CAKI-1 renal
HCT-116 colon = test system: HCT-116 colon
KM12 colon = test system: KM12 colon
HL-60(TB) leukemia = test system: HL-60(TB) leukemia
HOP-62 NSCLC = test system: HOP-62 NSCLC
HT29 colon = test system: HT29 colon
MDA-MB-435 = test system: MDA-MB-435
M14 melanoma = test system: M14 melanoma
OVCAR-8 ovarian = test system: OVCAR-8 ovarian
PC-3 prostate = test system: PC-3 prostate
SR leukemia = test system: SR leukemia
NCI-H23 lung = test system: NCI-H23 lung
SNB-75 CNS = test system: SNB-75 CNS
SNB-19 CNS = test system: SNB-19 CNS
SK-OV-3 ovarian = test system: SK-OV-3 ovarian
LOX IMVI melanoma = test system: LOX IMVI melanoma
EKVX NSCLC = test system: EKVX NSCLC
SK-MEL-5 melanoma = test system: SK-MEL-5 melanoma
SF-268 CNS = test system: SF-268 CNS
ACHN renal = test system: ACHN renal
RPMI-8226 leukemia = test system: RPMI-8226 leukemia
NCI-H226 lung = test system: NCI-H226 lung
MCF7 breast = test system: MCF7 breast

COc1ccc(N2C(=O)C3c4[nH]c5ccccc5c4C4CCC(c5ccccc5)CC4C3C2=O)cc1 (stereo not drawn)
TGI (COLO 205 colon): > 78.2 µM | TGI (HS 578T breast): 21.5 µM | TGI (MALME-3M melanoma): 18.3 µM | TGI (OVCAR-3 ovarian): > 100 µM | TGI (UACC-257 melanoma): 97.5 µM | TGI (A498 renal): 50.6 µM | TGI (CCRF-CEM leukemia): 53 µM | TGI (OVCAR-4 ovarian): > 49.5 µM | TGI (SK-MEL-2 melanoma): 53.2 µM | TGI (UACC-62 melanoma): 50.3 µM | TGI (NCI-H460 lung): > 43.1 µM | TGI (SF-295 CNS): > 51.1 µM | TGI (HCC-2998 colon): > 44.9 µM | TGI (MOLT-4 leukemia): > 100 µM | TGI (MDA-MB-231 breast): 41.5 µM | TGI (SF-539 CNS): 7.4 µM | TGI (SN12C renal): > 68.4 µM | TGI (IGROV1 ovarian): 68.8 µM | TGI (UO-31 renal): > 88.2 µM | TGI (K-562 leukemia): > 41.3 µM | TGI (786-0 renal): > 34.9 µM | TGI (OVCAR-5 ovarian): > 100 µM | TGI (MDA-N): > 81.5 µM | TGI (TK-10 renal): 35.5 µM | TGI (SK-MEL-28 melanoma): > 96.2 µM | TGI (NCI/ADR-RES ovarian): > 59.3 µM | TGI (NCI-H522 lung): > 44 µM | TGI (A549 NSCLC): > 78.1 µM | TGI (HOP-92 NSCLC): 61.8 µM | TGI (SW-620 colon): > 100 µM | TGI (RXF 393 renal): 25.6 µM | TGI (BT-549 breast): > 58.3 µM | TGI (U251 CNS): 21.1 µM | TGI (T-47D breast): > 100 µM | TGI (HCT-15 colon): > 100 µM | TGI (DU-145 prostate): > 100 µM | TGI (CAKI-1 renal): 36.1 µM | TGI (HCT-116 colon): > 100 µM | TGI (KM12 colon): > 100 µM | TGI (HL-60(TB) leukemia): > 34.8 µM | TGI (HOP-62 NSCLC): 27.7 µM | TGI (HT29 colon): > 100 µM | TGI (MDA-MB-435): > 100 µM | TGI (M14 melanoma): > 94.4 µM | TGI (OVCAR-8 ovarian): 37.2 µM | TGI (PC-3 prostate): > 78.5 µM | TGI (SR leukemia): 7.15 µM | TGI (NCI-H23 lung): > 51.7 µM | TGI (SNB-75 CNS): 19.1 µM | TGI (SNB-19 CNS): 43.2 µM | TGI (SK-OV-3 ovarian): 54.8 µM | TGI (LOX IMVI melanoma): > 54.1 µM | TGI (EKVX NSCLC): 55.6 µM | TGI (SK-MEL-5 melanoma): > 87.8 µM | TGI (SF-268 CNS): 43.8 µM | TGI (ACHN renal): 47.9 µM | TGI (RPMI-8226 leukemia): 78.6 µM | TGI (NCI-H226 lung): > 96.7 µM | TGI (MCF7 breast): > 100 µM

Cc1cccc2c1CC(C1OC(=O)c3ccccc31)C2=O (stereo not drawn)
TGI (COLO 205 colon): > 100 µM | TGI (HS 578T breast): > 100 µM | TGI (MALME-3M melanoma): > 100 µM | TGI (OVCAR-3 ovarian): > 100 µM | TGI (UACC-257 melanoma): > 100 µM | TGI (A498 renal): > 100 µM | TGI (CCRF-CEM leukemia): > 100 µM | TGI (OVCAR-4 ovarian): > 100 µM | TGI (SK-MEL-2 melanoma): > 100 µM | TGI (UACC-62 melanoma): > 100 µM | TGI (NCI-H460 lung): > 100 µM | TGI (SF-295 CNS): > 100 µM | TGI (HCC-2998 colon): > 100 µM | TGI (MOLT-4 leukemia): > 100 µM | TGI (MDA-MB-231 breast): > 100 µM | TGI (SF-539 CNS): > 100 µM | TGI (SN12C renal): > 100 µM | TGI (IGROV1 ovarian): > 100 µM | TGI (UO-31 renal): > 100 µM | TGI (K-562 leukemia): > 100 µM | TGI (786-0 renal): > 100 µM | TGI (OVCAR-5 ovarian): > 100 µM | TGI (MDA-N): > 100 µM | TGI (TK-10 renal): > 100 µM | TGI (SK-MEL-28 melanoma): > 100 µM | TGI (NCI/ADR-RES ovarian): > 100 µM | TGI (NCI-H522 lung): > 100 µM | TGI (A549 NSCLC): > 100 µM | TGI (HOP-92 NSCLC): > 100 µM | TGI (SW-620 colon): > 100 µM | TGI (RXF 393 renal): > 100 µM | TGI (BT-549 breast): > 100 µM | TGI (U251 CNS): > 100 µM | TGI (T-47D breast): > 100 µM | TGI (HCT-15 colon): > 100 µM | TGI (DU-145 prostate): > 100 µM | TGI (CAKI-1 renal): > 100 µM | TGI (HCT-116 colon): > 100 µM | TGI (KM12 colon): > 100 µM | TGI (HL-60(TB) leukemia): > 100 µM | TGI (HOP-62 NSCLC): > 100 µM | TGI (HT29 colon): > 100 µM | TGI (MDA-MB-435): > 100 µM | TGI (M14 melanoma): > 100 µM | TGI (OVCAR-8 ovarian): > 100 µM | TGI (PC-3 prostate): > 100 µM | TGI (SR leukemia): > 100 µM | TGI (NCI-H23 lung): > 100 µM | TGI (SNB-75 CNS): > 100 µM | TGI (SNB-19 CNS): > 100 µM | TGI (SK-OV-3 ovarian): > 100 µM | TGI (LOX IMVI melanoma): > 100 µM | TGI (EKVX NSCLC): > 100 µM | TGI (SK-MEL-5 melanoma): > 100 µM | TGI (SF-268 CNS): > 100 µM | TGI (ACHN renal): > 100 µM | TGI (RPMI-8226 leukemia): > 100 µM | TGI (NCI-H226 lung): > 100 µM | TGI (MCF7 breast): > 100 µM
